Reference: patent US12384770B2, “Heterocyclic compound” (Takeda Pharmaceutical Company Limited, priority 2019, dated 2025)

Molecular target: T1, HDAC6 enzyme (Homo sapiens, UniProt Q9UBN7)
T1 construct: HDAC6 enzyme prepared by transducing full length HDAC6 gene into Sf-9 insect cells; GST; purchased SignalChem; host or cells: Sf-9 insect cells
T1 sequence (Q9UBN7 1-1215): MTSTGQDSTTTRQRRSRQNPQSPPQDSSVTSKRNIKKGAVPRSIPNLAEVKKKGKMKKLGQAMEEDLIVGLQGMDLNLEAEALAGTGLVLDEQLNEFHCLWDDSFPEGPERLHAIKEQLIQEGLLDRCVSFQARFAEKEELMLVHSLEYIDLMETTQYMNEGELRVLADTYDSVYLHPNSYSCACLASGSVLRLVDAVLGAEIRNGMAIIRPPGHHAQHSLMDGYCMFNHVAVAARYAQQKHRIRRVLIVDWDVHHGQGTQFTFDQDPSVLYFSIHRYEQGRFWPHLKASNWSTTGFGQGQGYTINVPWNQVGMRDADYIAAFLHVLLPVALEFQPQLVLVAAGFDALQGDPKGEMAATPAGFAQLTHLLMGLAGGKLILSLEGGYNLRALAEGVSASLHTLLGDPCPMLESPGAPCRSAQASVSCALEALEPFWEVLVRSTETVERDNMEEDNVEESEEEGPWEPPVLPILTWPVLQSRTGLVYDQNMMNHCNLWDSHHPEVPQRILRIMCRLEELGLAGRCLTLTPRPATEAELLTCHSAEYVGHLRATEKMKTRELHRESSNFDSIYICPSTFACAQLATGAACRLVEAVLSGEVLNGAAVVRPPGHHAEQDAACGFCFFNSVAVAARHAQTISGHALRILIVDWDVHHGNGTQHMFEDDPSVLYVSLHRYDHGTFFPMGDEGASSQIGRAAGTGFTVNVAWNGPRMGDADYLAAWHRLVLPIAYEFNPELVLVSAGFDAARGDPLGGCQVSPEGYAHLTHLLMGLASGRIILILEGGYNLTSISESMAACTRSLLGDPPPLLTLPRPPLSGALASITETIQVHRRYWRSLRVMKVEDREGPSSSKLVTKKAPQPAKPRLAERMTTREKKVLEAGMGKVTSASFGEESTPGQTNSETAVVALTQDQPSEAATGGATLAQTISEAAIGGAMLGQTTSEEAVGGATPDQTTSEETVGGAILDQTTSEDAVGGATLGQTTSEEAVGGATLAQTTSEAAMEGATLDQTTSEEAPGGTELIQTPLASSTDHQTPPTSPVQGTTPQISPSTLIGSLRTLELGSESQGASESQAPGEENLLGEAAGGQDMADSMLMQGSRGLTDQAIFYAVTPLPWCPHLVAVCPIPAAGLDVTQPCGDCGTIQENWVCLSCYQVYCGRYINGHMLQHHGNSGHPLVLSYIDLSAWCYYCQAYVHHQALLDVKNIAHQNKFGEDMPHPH
Assay: HDAC6 enzyme inhibitory assay (HDAC-Glo I/II Assay kit)
Format: biochemical
Details: wells without enzyme = 100% inhibition; for inhibition at 10 µM: read-out: HDAC6 inhibitory rate (%) (10 μM)
In short: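 Full-length GST-purified HDAC6 from Sf-9 cells preincubated with compound 60 min at room temperature in Tris-HCl pH 7.5 buffer with MgCl2, KCl, NaCl, glutathione, Tween-20. Substrate-developer reaction 20 min, luminescence read; no-enzyme wells set as 100% inhibition.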

| inhibition at 10 µM [%] | Compound | further results |
| --- | --- | --- |
| 100 | O=C1c2cc(-c3nnc(C(F)F)o3)ccc2CN1[C@H](C1CCOCC1)[C@H](O)c1cccc(F)c1 [Example 149, 6-[5-(difluoromethyl)-1,3,4-oxadiazol-2-yl]-2-[(1R,2R)-2-(3-fluorophenyl)-2-hydroxy-1-(oxan-4-yl)ethyl]-2,3-dihydro-1H-isoindol-1-one] | – |
| 100 | O=C1c2cc(-c3nnc(C(F)F)o3)ccc2CN1[C@H](c1ccc(F)cn1)[C@H](O)c1ccccn1 (racemic) [Example 144, 6-[5-(difluoromethyl)-1,3,4-oxadiazol-2-yl]-2-[(1RS,2SR)-1-(5-fluoropyridin-2-yl)-2-hydroxy-2-(pyridin-2-yl)ethyl]-2,3-dihydro-1H-isoindol-1-one] | – |
| 99 | O=C1c2cc(-c3nnc(C(F)F)o3)ccc2CN1[C@H](c1ccc(C(F)(F)F)nc1)[C@@H](O)c1ccc(F)cc1 (racemic) [Example 18, 6-[5-(difluoromethyl)-1,3,4-oxadiazol-2-yl]-2-{(1RS,2SR)-2-(4-fluorophenyl)-2-hydroxy-1-[6-(trifluoromethyl)pyridin-3-yl]ethyl}-2,3-dihydro-1H-isoindol-1-one] | – |
| 99 | O=C1c2cc(-c3nnc(C(F)F)o3)ccc2CN1[C@H](c1ccc(C(F)(F)F)cc1)[C@@H](O)c1ccccn1 (racemic) [Example 26, 6-[5-(difluoromethyl)-1,3,4-oxadiazol-2-yl]-2-{(1RS,2RS)-2-hydroxy-2-(pyridin-2-yl)-1-[4-(trifluoromethyl)phenyl]ethyl}-2,3-dihydro-1H-isoindol-1-one] | – |
| – | O=C1c2cc(-c3nnc(C(F)F)o3)ccc2CN1[C@H](C1CCOCC1)[C@@H](O)c1ccc(Cl)cc1 (single isomer, unassigned) [Example 84, 2-[(1R*,2S*)-2-(4-chlorophenyl)-2-hydroxy-1-(oxan-4-yl)ethyl]-6-[5-(difluoromethyl)-1,3,4-oxadiazol-2-yl]-2,3-dihydro-1H-isoindol-1-one] | HDAC6 inhibitory rate (%) (10 μM) (10 µM): 100% |
| 99 | O=C1c2cc(-c3nnc(C(F)F)o3)ccc2CN1[C@H](c1ccc(F)cc1)[C@@H](O)C1CCOCC1 (racemic) [Example 30, 6-[5-(difluoromethyl)-1,3,4-oxadiazol-2-yl]-2-[(1RS,2SR)-1-(4-fluorophenyl)-2-hydroxy-2-(oxan-4-yl)ethyl]-2,3-dihydro-1H-isoindol-1-one] | – |
| 101 | O=C1c2cc(-c3nnc(C(F)F)o3)ccc2CN1[C@H](c1ccccn1)[C@@H](O)c1ccc(F)cc1 (single isomer, unassigned) [Example 36, 6-[5-(difluoromethyl)-1,3,4-oxadiazol-2-yl]-2-[(1R*,2S*)-2-(4-fluorophenyl)-2-hydroxy-1-(pyridin-2-yl)ethyl]-2,3-dihydro-1H-isoindol-1-one] | – |
| 99 | O=C1c2cc(-c3nnc(C(F)F)o3)ccc2CN1[C@H](c1ccc(F)cc1)[C@@H](O)c1cccnc1 (single isomer, unassigned) [Example 49, 6-[5-(difluoromethyl)-1,3,4-oxadiazol-2-yl]-2-[(1R*,2S*)-1-(4-fluorophenyl)-2-hydroxy-2-(pyridin-3-yl)ethyl]-2,3-dihydro-1H-isoindol-1-one] | – |
| 100 | O=C1c2cc(-c3nnc(C(F)F)o3)ccc2CN1[C@H](c1ccccc1)[C@@H](O)C1CCC(F)(F)CC1 (racemic) [Example 25, 2-[(1RS,2SR)-2-(4,4-difluorocyclohexyl)-2-hydroxy-1-phenylethyl]-6-[5-(difluoromethyl)-1,3,4-oxadiazol-2-yl]-2,3-dihydro-1H-isoindol-1-one] | – |
| 99 | O=C1c2cc(-c3nnc(C(F)F)o3)ccc2CN1[C@H](c1ccccc1)[C@@H](O)c1ccc(F)cc1 (racemic) [Example 22, 6-[5-(difluoromethyl)-1,3,4-oxadiazol-2-yl]-2-[(1RS,2SR)-2-(4-fluorophenyl)-2-hydroxy-1-phenylethyl]-2,3-dihydro-1H-isoindol-1-one] | – |
| 100 | N#Cc1ccc([C@H]([C@@H](O)c2ccccc2)N2Cc3ccc(-c4nnc(C(F)F)o4)cc3C2=O)cc1 (racemic) [Example 41, 4-[(1RS,2SR)-1-{6-[5-(difluoromethyl)-1,3,4-oxadiazol-2-yl]-1-oxo-1,3-dihydro-2H-isoindol-2-yl}-2-hydroxy-2-phenylethyl]benzonitrile] | – |
| 101 | O=C1c2cc(-c3nnc(C(F)F)o3)ccc2CN1[C@H](c1ccccn1)[C@@H](O)c1cc(Cl)ccn1 (single isomer, unassigned) [Example 123, 2-[(1R*,2R*)-2-(4-chloropyridin-2-yl)-2-hydroxy-1-(pyridin-2-yl)ethyl]-6-[5-(difluoromethyl)-1,3,4-oxadiazol-2-yl]-2,3-dihydro-1H-isoindol-1-one] | – |
| 100 | O=C1c2cc(-c3nnc(C(F)F)o3)ccc2CN1[C@H](c1cccc(F)c1)[C@@H](O)c1ccccc1 (racemic) [Example 20, 6-[5-(difluoromethyl)-1,3,4-oxadiazol-2-yl]-2-[(1RS,2SR)-1-(3-fluorophenyl)-2-hydroxy-2-phenylethyl]-2,3-dihydro-1H-isoindol-1-one] | – |
| – | O=C1c2cc(-c3nnc(C(F)F)o3)ccc2CN1[C@H](c1cccnn1)[C@@H](O)c1ccc(F)c(F)c1 (single isomer, unassigned) [Example 109, 6-[5-(difluoromethyl)-1,3,4-oxadiazol-2-yl]-2-[(1R*,2S*)-2-(3,4-difluorophenyl)-2-hydroxy-1-(pyridazin-3-yl)ethyl]-2,3-dihydro-1H-isoindol-1-one] | HDAC6 inhibitory rate (%) (10 μM): 100% |
| 100 | O=C1c2cc(-c3nnc(C(F)F)o3)ccc2CN1[C@H](c1ccccn1)[C@H](O)c1ccccc1 (racemic) [Example 143, 6-[5-(difluoromethyl)-1,3,4-oxadiazol-2-yl]-2-[(1RS,2RS)-2-hydroxy-2-phenyl-1-(pyridin-2-yl)ethyl]-2,3-dihydro-1H-isoindol-1-one] | – |
| 100 | O=C1c2cc(-c3nnc(C(F)F)o3)ccc2CN1[C@H](c1ccc(F)cn1)[C@@H](O)c1cccc(F)n1 (single isomer, unassigned) [Example 66, 6-[5-(difluoromethyl)-1,3,4-oxadiazol-2-yl]-2-[(1R*,2R*)-1-(5-fluoropyridin-2-yl)-2-(6-fluoropyridin-2-yl)-2-hydroxyethyl]-2,3-dihydro-1H-isoindol-1-one] | – |
| 100 | O=C1c2cc(-c3nnc(C(F)F)o3)ccc2CN1[C@H](C1CC1)[C@@H](O)c1ncccn1 (single isomer, unassigned) [Example 73, 2-[(1R*,2R*)-1-cyclopropyl-2-hydroxy-2-(pyrimidin-2-yl)ethyl]-6-[5-(difluoromethyl)-1,3,4-oxadiazol-2-yl]-2,3-dihydro-1H-isoindol-1-one] | – |
| 101 | O=C1c2cc(-c3nnc(C(F)F)o3)ccc2CN1[C@H](c1ncccn1)[C@@H](O)c1ccc(F)cc1 (racemic) [Example 134, 6-[5-(difluoromethyl)-1,3,4-oxadiazol-2-yl]-2-[(1RS,2SR)-2-(4-fluorophenyl)-2-hydroxy-1-(pyrimidin-2-yl)ethyl]-2,3-dihydro-1H-isoindol-1-one] | – |
| 99 | O=C1c2cc(-c3nnc(C(F)F)o3)ccc2CN1[C@H](c1cc(F)c(F)c(F)c1)[C@@H](O)c1ccccn1 (racemic) [Example 15, 6-[5-(difluoromethyl)-1,3,4-oxadiazol-2-yl]-2-[(1RS,2RS)-2-hydroxy-2-(pyridin-2-yl)-1-(3,4,5-trifluorophenyl)ethyl]-2,3-dihydro-1H-isoindol-1-one] | – |
| 99 | O=C1c2cc(-c3nnc(C(F)F)o3)ccc2CN1[C@H](c1ccccc1)[C@@H](O)c1ccccn1 (single isomer, unassigned) [Example 47, 6-[5-(difluoromethyl)-1,3,4-oxadiazol-2-yl]-2-[(1R*,2R*)-2-hydroxy-1-phenyl-2-(pyridin-2-yl)ethyl]-2,3-dihydro-1H-isoindol-1-one] | – |
